Assay results published in US9168286B2, “Methods and compositions for use in treatment of patients with autoantibody positive disease” (Human Genome Sciences, Inc., priority 2005, dated 2015).

Experiments:
[1] = tested on: subjects with SLE; experiment: Phase 2 clinical trial of belimumab in SLE with extension and continuation trial: biologic markers (B cells, autoantibodies, Ig isotypes, C3/C4); assay type: in vivo, human; parameters: median percent change in CD20+ B cells (reduction) / median percent change in plasmacytoid B cells (CD20+/CD138+) (reduction) / median percent change in activated B cells (CD20+/CD69+) (reduction) / percent of subjects with significant anti-dsDNA reduction / IgE reduction: concentration or dose not given beside the values; details: for IgE reduction: subjects with elevated IgE (>114 KU/L) at baseline; for median percent IgG reduction: weeks 52-128
Experimental: Of the patients who completed 52 weeks of treatment in the randomized, double-blind, placebo-controlled Phase 2 trial (see example 1), 96% (351/364) elected to enter the 24-week extension phase of the trial, and 92% (321/351) of those who entered completed it.
Serum autoantibodies, Ig isotypes and complement (C3, C4) were measured at 1-3 month intervals. In addition, the population with baseline serologic activity (ANA ≧1:80 or anti-dsDNA Ab ≧30IU; 72% of the original cohort herein called seropositive patients or seropositive subjects) was evaluated for SS, physician global assessment (PGA 0-3 units), BILAG, […] Functional Index (SFI) and autoantibody status at 1-3 month intervals.

[2] = tested on: subjects with RA; experiment: Phase 2 clinical trial of belimumab in rheumatoid arthritis: safety; assay type: in vivo, human
Source text: (§1) ACR20 response increased to approximately 40% at Week 48.

[3] = tested on: subjects with SLE; details: human, in vivo
Experimental: 449 subjects with SLE by ACR criteria (Tan et al., Arthritis Rheum. 25:1271-7, (1982); and Hochberg et al., Arthritis Rheum. 40:1725, (1997)), with a history of measurable autoantibodies and SELENA SLEDAI score ≧4 at screening were dosed.
Subjects who completed the 52-week treatment period were given the option to continue the study for a 24-week extension period. […] B-cells were analyzed every 1-2 months by 4-color FACS (CD19, CD20, CD27, CD69, CD38, CD138 and CD45). Serum autoantibody, including anti-dsDNA Ab, Ig isotypes, total protein, and albumin levels were obtained at the same visits. The likelihood ratio chi-squared, Wilcoxon test or t-test was used to analyze the changes in the biological markers.

[4] = tested on: subjects with RA; experiment: Phase 2 clinical trial of belimumab in rheumatoid arthritis: ACR20 response; assay type: in vivo, human
Source text: as §1

[5] = each measurement during weeks 8-52, p<0.01
[6] = week 52, all treatment groups combined, p<0.002
[7] = week 76, all treatment groups combined

## belimumab: an antibody that neutralizes Neutrokine-alpha protein
[1]; clinical responders, week 128
  percent of subjects with significant anti-dsDNA reduction: 56%
[1]; [5]
  CD19+ B cell counts, median percent change from baseline: Significant reductions
  activated B cell (CD20+/CD69+) counts, median percent change from baseline: Significant reductions
  naïve B cell (CD20+/CD27−) counts, median percent change from baseline: Significant reductions
[1]; each measurement during weeks 16-52, p<0.01
  plasmacytoid B cell (CD20+/CD138+) counts, median percent change from baseline: Significant reductions
[1]; low baseline C3 (n=135), week 52, placebo −1%
  increase of C3: 6%
[1]; low baseline C3, week 76
  increase of C3: 10%
[1]; low baseline C3, week 96
  increase of C3: 15%
[1]; low baseline C3, week 128
  increase of C3: 18%
[1]; low baseline C4 (n=180), week 52, p=0.0126, placebo 14%
  increase of C4: 33%
[1]; low baseline C4, week 76
  increase of C4: 46%
[1]; low baseline C4, week 96
  increase of C4: 57%
[1]; low baseline C4, week 128
  increase of C4: 67%
[1]; n=85, weeks 52-128, placebo week 52=5%
  Anti-Sm reverted from positive at baseline to negative: 26-36%
[1]; n=125, week 52, placebo week 52=17%
  subjects with hypergammaglobulinemia (>1618 mg/dL) at baseline normalized: 45%
[1]; n=125, week 128
  subjects with hypergammaglobulinemia (>1618 mg/dL) at baseline normalized: 57%
[1]; n=205, weeks 52-128, placebo week 52=2%
  RNP reverted from positive at baseline to negative: 9-27%
[1]; non-responders, week 52
  percent of subjects with significant anti-dsDNA reduction: 19%
[1]; non-responders, week 128
  percent of subjects with significant anti-dsDNA reduction: 32%
[1]; patients with low C4 at baseline, each measurement during weeks 4-52, p≦0.01
  C4 complement levels, median percent change from baseline: significant increase
[1]; subjects with anti-dsDNA ≧30 IU/ml at entry, as early as week 4, through week 52, vs placebo
  anti-dsDNA titer, median percent change from baseline: significant reduction
[1]; week 52
  IgE reduction: 44%
  CD19+ B cells and naïve B cells (CD20+/CD27−): significantly reduced
  memory cell populations: preserved
[1]; week 128
  IgE reduction: 57%
  median reduction of serum IgA: 14%
  median reduction of serum IgE: 41%
  median reduction of serum IgG: 9%
  median reduction of serum IgM: 40%
  subjects with significant anti-dsDNA reduction (≧50% reduction or become negative): 47%
[1]; subjects with elevated IgG at baseline
  median percent IgG reduction: 14-18%
[1]; subjects with normal IgG at baseline
  median percent IgG reduction: 7-8%
[1]; week 24, all treated combined vs placebo, p<0.0001
  cell counts of CD19+, naïve, activated and plasmacytoid B cells, median percent change from baseline: significant reduction
[1]; [6]
  median percent change in CD20+ B cells (reduction): 54%
  median percent change in plasmacytoid B cells (CD20+/CD138+) (reduction): 62%
[1]; week 52, baseline positive, p<0.002, placebo 9%
  reduction of anti-dsDNA Ab: 30%
[1]; week 52, p<0.002
  median percent change in activated B cells (CD20+/CD69+) (reduction): 70%
[1]; week 52, placebo 0%
  median reduction of serum IgE: 34%
[1]; week 52, placebo 3%
  median reduction of serum IgA: 14%
[1]; week 52, placebo 5%
  median reduction of serum IgM: 29%
[1]; week 52, placebo 17%
  subjects with significant anti-dsDNA reduction (≧50% reduction or become negative): 30%
[1]; week 52, placebo up 3%
  median reduction of serum IgG: 10%
[1]; week 52, placebo/standard of care 30.6%, p=0.02
  increase of plasma cells (CD20−/CD138+) over baseline: 72.5%
[1]; week 76
  additional anti-dsDNA+ subjects converted to negative: 3 subjects
  median reduction of serum IgA: 15%
  median reduction of serum IgE: 35%
  median reduction of serum IgG: 12%
  median reduction of serum IgM: 34%
  reduction of anti-dsDNA Ab: 28%
[1]; [7]
  median percent change in CD20+ B cells (reduction): 61%
  median percent change in activated B cells (CD20+/CD69+) (reduction): 84%
  median percent change in plasmacytoid B cells (CD20+/CD138+) (reduction): 60%
[1]; week 104
  median reduction of serum IgA: 14%
  median reduction of serum IgE: 37%
  median reduction of serum IgG: 10%
  median reduction of serum IgM: 35%
[2]; 1, 4, 10 mg/kg, 24 weeks
  tolerability: well tolerated at all doses
[2]; continued treatment in the extension period
  tolerability: well tolerated
[3]
  safety, including adverse events (AE), AE severity, infections or lab toxicity: No clinically significant differences
[4]; 1 mg/kg treatment group vs placebo, 24 weeks, p=0.0097
  ACR20 response: statistically superior
[4]; 1, 4, 10 mg/kg
  dose-response relationship for efficacy, safety, biomarker effects: not apparent
[4]; Week 48 (extension period)
  ACR20 response: approximately 40%
[4]; all active treatment groups combined vs placebo, 24 weeks, p=0.0213
  ACR20 response: statistically superior
[4]; patients with DAS28 >5.1, no previous anti-TNF therapy, and/or rheumatoid factor, IV days 0, 14, 28 then every four weeks until week 24
  symptoms associated with rheumatoid arthritis, by subgroup: more likely to ameliorate symptoms associated with rheumatoid arthritis
[4]; subjects with autoantibody positive disease (RF or anti-CCP) or positive for CRP at baseline
  ACR20 responses in subgroups: improved ACR20 responses
